Each structure is given as a SMILES string. *1 amine or outer side, *2 acyl side, *3 side chain or, on linkers, in order; H or OH if unused. Where a SMILES comes first, the peptide text is derived from it. Bridges are numbered along the chain shown (N, C = ends). [ ]: non-standard residue; d: D form. X1 = O=C(O)CCCCCCCCCCCCCCCCCCC(=O)N[C@@H](CCCCNC(=O)COCCOCCNC(=O)COCCOCCNC(=O)CCC(=O)N(CCNC(=O)C[*:1])CCNC(=O)C[*:2])C(=O)O; Phe(2-F) = N[C@@H](Cc1ccccc1F)C(=O)O; Iva = CC[C@](C)(N)C(=O)O; Aib = CC(C)(N)C(=O)O

The target of one series is T1, GLP-1R (Homo sapiens, UniProt P43220).
T1 construct: expressed in transfected cells
T1 sequence (P43220 24-463, species assumed): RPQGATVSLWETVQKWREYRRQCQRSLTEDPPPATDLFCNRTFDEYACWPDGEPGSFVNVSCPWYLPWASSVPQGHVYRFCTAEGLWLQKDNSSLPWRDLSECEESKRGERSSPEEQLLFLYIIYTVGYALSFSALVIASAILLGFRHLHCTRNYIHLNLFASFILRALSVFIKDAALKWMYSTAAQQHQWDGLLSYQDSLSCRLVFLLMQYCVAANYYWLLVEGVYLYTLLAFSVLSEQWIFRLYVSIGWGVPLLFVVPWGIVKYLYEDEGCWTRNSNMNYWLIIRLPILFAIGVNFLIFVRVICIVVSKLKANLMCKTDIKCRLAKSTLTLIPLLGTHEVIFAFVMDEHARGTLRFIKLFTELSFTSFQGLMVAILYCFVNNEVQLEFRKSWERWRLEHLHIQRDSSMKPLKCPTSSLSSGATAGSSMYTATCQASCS
Put plainly: CreLuc method (CRE-luciferase reporter), HEK293/pGM-CREB-L-Luc/GLP-1R pool. The conditions noted are these: 6 h incubation, read-out: EC50 (pM) for each receptor GLP-1R. In kind it is cell-based. Summed up: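 Stable HEK293 pools co-expressing each receptor with a CRE-luciferase reporter were plated at 20,000 cells/well in freestyle medium and treated with compound dilution series for 6 h at 37 °C. Luminescence was read with ONE-GLO to derive EC50.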

The next series addresses T2, GCGR (Homo sapiens, UniProt P47871).
T2 construct: expressed in transfected cells
Nature of the series: cAMP method (HTRF cAMP detection kit), HEK293/pGM-CREB-L-Luc/GCG pool. Type of series: cell-based. The conditions noted are these: read-out: EC50 (pM) for each receptor GCGR.

The nature of the next series: in vivo. Further details: species or system male SD rats. The conditions noted are these: rat. Here is the method: The pharmacokinetic behavior of target peptide derivatives (or polypeptide derivatives) prepared in Example 1 and Example 2, i.e., TG1-TG94 in rodents was tested. The specific steps are as follows:
The target peptide derivatives (TG1-TG94) to be tested were administered to male SD rats via subcutaneous injection (SC, 3 mg/kg; drug vehicle: PBS, concentration: 1.5 mg/mL; administration volume: 2 mL) and intravenous injection (IV, 1 mg/kg; drug vehicle: PBS, concentration: 0.5 mg/mL; administration volume: 2 mL) as a single dose, respectively. Whole blood samples were collected from the jugular vein or other appropriate vein at the following time points after administration: for SC, 15 min, 30 min, 1 h, 2 h, 4 h, 6 h, 8 h, 24 h, 48 h, 72 h, 96 h, 120 h, and 168 h; for IV, 5 min, 15 min, 30 min, 1 h, 2 h, 4 h, 8 h, 24 h, 48 h, 72 h, 96 h, 120 h, and 168 h. 0.2 mL of blood was collected and transferred into a labeled EDTA-K2 anticoagulant tube. The tube was gently inverted to ensure thorough mixing of the anticoagulant (EDTA-K2) with the blood and immediately placed on wet ice. Plasma separation was performed as soon as possible by centrifugation under the following conditions: 4°C, 6800xg, for 6 min. The plasma samples were stored in a refrigerator at no higher than -20°C and used for analysis when needed.
Under the condition of yellow light in an ice-water bath, except for blank samples, 300 µL of precipitant containing an internal standard was added to a 96-well plate containing 20 µL of standard curve sample, quality control sample, or unknown sample; 300 µL of acetonitrile was added to the blank sample. The mixture was vortexed, mixed well, and then centrifuged. 150 µL of the supernatant after centrifugation was transferred to a new 96-well plate, and 150 µL of ultrapure water was added and mixed well. The above samples were subjected to quantitative analysis using LC-MS analysis with XB-C18 (2.1 * 100 mm, 3 µm) chromatography for gradient elution. The mobile phases used were: mobile phase A = 0.1% formic acid-water; mobile phase B = acetonitrile. Phoenix WinNonlin software was used to calculate the pharmacokinetic parameters. […] Table 5A: Pharmacokinetic parameters of target peptide derivatives

T2 sequence (P47871 26-477, species assumed): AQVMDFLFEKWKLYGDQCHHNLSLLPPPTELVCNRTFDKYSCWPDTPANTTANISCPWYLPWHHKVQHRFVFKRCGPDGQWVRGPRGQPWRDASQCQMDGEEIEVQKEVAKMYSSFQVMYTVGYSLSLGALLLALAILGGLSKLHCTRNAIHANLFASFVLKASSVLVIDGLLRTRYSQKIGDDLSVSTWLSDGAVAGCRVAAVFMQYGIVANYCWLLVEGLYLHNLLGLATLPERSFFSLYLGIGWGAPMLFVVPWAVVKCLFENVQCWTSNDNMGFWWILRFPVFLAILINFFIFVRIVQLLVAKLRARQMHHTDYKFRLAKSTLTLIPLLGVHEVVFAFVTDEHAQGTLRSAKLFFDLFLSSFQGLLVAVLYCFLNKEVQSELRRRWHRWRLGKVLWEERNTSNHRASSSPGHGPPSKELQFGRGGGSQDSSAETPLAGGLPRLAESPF

As for `CC[C@H](C)[C@@H]1NC(=O)[C@H](Cc2ccccc2)NC(=O)[C@@H](NC(=O)C(C)(C)NC(=O)[C@H](CCC(N)=O)NC(=O)[C@H](C)NC(=O)[C@H](CCCCNC(C)=O)NC(=O)[C@H](CCCCN)NC(=O)[C@H](CC(=O)O)NC(=O)[C@H](CC(C)C)NC(=O)[C@](C)(CC)NC(=O)[C@@H](NC(=O)[C@H](CO)NC(=O)[C@H](Cc2ccc(O)cc2)NC(=O)[C@H](CC(=O)O)NC(=O)[C@H](CO)NC(=O)[C@@H](NC(=O)[C@H](Cc2ccccc2F)NC(=O)[C@@H](NC(=O)CNC(=O)[C@H](CCC(N)=O)NC(=O)C(C)(C)NC(=O)[C@@H](N)Cc2ccc(O)cc2)[C@@H](C)O)[C@@H](C)O)[C@@H](C)CC)CSCC(=O)NCCN(C(=O)CCC(=O)NCCOCCOCC(=O)NCCOCCOCC(=O)NCCCC[C@H](NC(=O)CCCCCCCCCCCCCCCCCCC(=O)O)C(=O)O)CCNC(=O)CSC[C@@H](C(=O)NCC(=O)NCC(=O)N2CCC[C@H]2C(=O)N[C@@H](CO)C(=O)N[C@@H](CO)C(=O)NCC(=O)N[C@@H](C)C(=O)N2CCC[C@H]2C(=O)N2CCC[C@H]2C(=O)N2CCC[C@H]2C(=O)N[C@@H](CO)C(N)=O)NC(=O)[C@H](CC(C)C)NC(=O)[C@H](CC(C)C)NC(=O)[C@H](Cc2ccc(O)cc2)NC(=O)[C@H](CCC(=O)O)NC1=O` [TG52] (H-Y[Aib]QGT[Phe(2-F)]TSDYSI[Iva]LDKK(Ac)AQ[Aib]CFIEYLLCGGPSSGAPPPS-NH2; linker 21-28 via X1), the EC50 at GLP-1R was determined as 112 pM. Besides, on GCGR, the EC50 came to 8.8 pM. Also, in “in vivo” (male, SD, iv, 1 mg/kg), the AUC(0-inf) came to 289 µg·h/mL, the AUC(0-t) was 265 µg·h/mL, the MRT came out at 26.5 h and the Vd was 0.092 L/kg. Moreover, in “in vivo” (male, SD, iv, 1 mg/kg), the clearance came to 3.48 mL/h/kg and the half-life is 21.5 h. The molecule also returned a bioavailability in “in vivo” (male, SD, sc) of 50.9%. In the series “in vivo” (male, SD, sc, 3 mg/kg), this molecule registered an AUC(0-inf) of 570 µg·h/mL, an AUC(0-t) of 410 µg·h/mL, a CL/F of 5.26 mL/h/kg and a maximum concentration (Cmax) of 8210 ng/mL. In the series “in vivo” (male, SD, sc, 3 mg/kg), the MRT stood at 42.8 h, the Tmax stood at 24 h and the half-life is 26.4 h. In the series “in vivo” (iv, 1 mg/kg), the “AUC0-t /AUC0-inf” value amounted to 0.918 and the Kel turned out to be 0.0323 h⁻¹. Further, in the series “in vivo” (sc, 3 mg/kg), the “AUC0-t /AUC0-inf” value is 0.834 and the Vz/F was found to be 0.200 L/kg.

The values are drawn from EP4790066A1, “GLP-1R/GIPR/GCGR TRIPLE AGONIST ANALOGUE AND USE THEREOF” (Shenzhen Bay Laboratory, priority 2023, dated 2025).
